Where two headings read alike, the source gives them in different places.
How the values were obtained:
[1] = molecular target: T1, CDK9/CycT1 (Homo sapiens, UniProt P50750); test: CDK family panel, ADP-Glo; format: biochemical
T1 construct: ICE Bioscience Inc. (assay service)
Protocol: (§2) All the kinase activity were performed using an ADP-Glo kinase assay by ICE Bioscience Inc. (Beijing, China).

[2] = molecular target: T2, CDK2/CycE1 (Homo sapiens, UniProt P24941); test: CDK family panel, ADP-Glo; format: biochemical
T2 construct: ICE Bioscience Inc. (assay service)
Protocol: as §2

[3] = molecular target: T3, CDK3/CycC (Homo sapiens, UniProt Q00526); test: CDK family panel, ADP-Glo; format: biochemical
T3 construct: ICE Bioscience Inc. (assay service)
Protocol: as §2

[4] = molecular target: T4, CDK14/CycY (Homo sapiens, UniProt O94921); test: CDK family panel, ADP-Glo; format: biochemical
T4 construct: ICE Bioscience Inc. (assay service)
Protocol: as §2

[5] = molecular target: T5, CDK5/p35NCK (Homo sapiens, UniProt Q00535); test: CDK family panel, ADP-Glo; format: biochemical
T5 construct: ICE Bioscience Inc. (assay service)
Protocol: (§3) All the kinase activity were performed using an ADP-Glo kinase assay by ICE Bioscience Inc. (Beijing, China). Kinome selectivity profiles (KINOMEscan profiling) and Kd detection were performed by Eurofins DiscoveryX Corporation (San Diego, CA, USA).

[6] = molecular target: T6, CDK6/CycD1 (Homo sapiens, UniProt Q00534); test: CDK family panel, ADP-Glo; format: biochemical
T6 construct: ICE Bioscience Inc. (assay service)
Protocol: as §3

[7] = molecular target: T7, CDK7/CycH/MAT1 (Homo sapiens, UniProt P50613); test: CDK family panel, ADP-Glo; format: biochemical
T7 construct: ICE Bioscience Inc. (assay service)
Protocol: as §2

[8] = molecular target: T8, CDK2/CycA2 (Homo sapiens, UniProt P24941); test: CDK family panel, ADP-Glo; format: biochemical
T8 construct: ICE Bioscience Inc. (assay service)
Protocol: as §2

[9] = molecular target: T9, CDK5/p25NCK (Homo sapiens, UniProt Q00535); test: CDK family panel, ADP-Glo; format: biochemical
T9 construct: ICE Bioscience Inc. (assay service)
Protocol: as §2

[10] = system: normal and non-neoplastic cells; test: Cell viability panel; format: cell-based, human; settings: 5 days of treatment, compared with sensitive cancer cells
Protocol: (§1) Cells were seeded in 96-well plates and incubated at 37 °C and 5% CO2. After overnight incubation, serial dilutions of tested compounds were added to the plate. The assay was tested with Cell Titer-Glo (Promega) after 5 days. The luminescence signal was detected by the Infinite M1000 Pro plate reader (Tecan), and the IC50 values were calculated by GraphPad Prism 10.

[11] = molecular target: T10, CDK3/CycE1 (Homo sapiens, UniProt Q00526); test: CDK family panel, ADP-Glo; format: biochemical
T10 construct: ICE Bioscience Inc. (assay service)
Protocol: as §3

[12] = Pharmacokinetics study in mice; format: in vivo, ICR mice; settings: for AUC(0-t) / Cmax / Tmax / clearance / half-life / bioavailability: both sexes, ICR, mouse, plasma
[13] = molecular target: T11, CDK9/CycK (Homo sapiens, UniProt P50750); test: CDK family panel, ADP-Glo; format: biochemical
T11 construct: ICE Bioscience Inc. (assay service)
Protocol: as §2

[14] = system: VCaP cells; test: Cell apoptosis assay by flow cytometry; format: cell-based, human; settings: YJZ5118 at 100 nM
Protocol: Cells were seeded in six-well plates and incubated for 24 h at 37 °C and 5% CO2. Cells were then treated with the indicated concentrations of the tested compounds for 48 h. The treated cells then were collected, centrifuged and washed twice by cold PBS. […] Cell samples were analyzed with flow cytometry (SH800S cell sorter, Sony Biotechnology).

[15] = system: VCaP cells; test: Washout experiment, cell growth; format: cell-based, human; settings: VCaP cells treated 6 h, compound removed, 5 days in compound-free media
Protocol: The previously reported reversible inhibitor 10 was included for comparison. VCaP cells were treated with the compounds for 6 h, after which the compounds were removed, and the cells were cultured in compound-free media for 5 days.

[16] = system: DU145; test: Cell viability panel; format: cell-based; settings: Homo sapiens, DU-145, 120 h; prostate cancer cells, 5 days of treatment
Protocol: as §1

[17] = system: MDA-MD-468; test: Cell viability panel; format: cell-based; settings: Homo sapiens, 120 h; breast cancer cells, 5 days of treatment
Protocol: as §1

[18] = system: CHLA10; test: Cell viability panel; format: cell-based; settings: Homo sapiens, 120 h; Ewing's sarcoma cells, 5 days of treatment
Protocol: as §1

[19] = system: CB-AGPN; test: Cell viability panel; format: cell-based; settings: Homo sapiens, 120 h; Ewing's sarcoma cells, 5 days of treatment
Protocol: as §1

[20] = system: SK-BR-3; test: Cell viability panel; format: cell-based; settings: Homo sapiens, SK-BR-3, 120 h; breast cancer cells, 5 days of treatment
Protocol: as §1

[21] = system: MFM223; test: Cell viability panel; format: cell-based; settings: Homo sapiens, MFM-223, 120 h; breast cancer cells, 5 days of treatment
Protocol: as §1

[22] = molecular target: T12, CDK1/CycE1 (Homo sapiens, UniProt P06493); test: CDK family panel, ADP-Glo; format: biochemical
T12 construct: ICE Bioscience Inc. (assay service)
Protocol: as §2

[23] = molecular target: T13, CDK16/CycY (Homo sapiens, UniProt Q00536); test: CDK family panel, ADP-Glo; format: biochemical
T13 construct: ICE Bioscience Inc. (assay service)
Protocol: as §2

[24] = molecular target: T14, TAOK3 (Homo sapiens, UniProt Q9H2K8); test: ADP-Glo assay, TAOK3; format: biochemical; settings: read-out: IC50 against TAOK3
T14 construct: ICE Bioscience Inc. (assay service)

[25] = molecular target: T15, CDK19/CycC (Homo sapiens, UniProt Q9BWU1); test: CDK family panel, ADP-Glo; format: biochemical
T15 construct: ICE Bioscience Inc. (assay service)
Protocol: as §2

[26] = molecular target: T16, CDK4/CycD1 (Homo sapiens, UniProt P11802); test: CDK family panel, ADP-Glo; format: biochemical
T16 construct: ICE Bioscience Inc. (assay service)
Protocol: as §3

[27] = intravenous, i.v. 2.5 mg/kg (Table S5, intraperitoneal study)

T11 sequence (P50750 whole entry, species assumed): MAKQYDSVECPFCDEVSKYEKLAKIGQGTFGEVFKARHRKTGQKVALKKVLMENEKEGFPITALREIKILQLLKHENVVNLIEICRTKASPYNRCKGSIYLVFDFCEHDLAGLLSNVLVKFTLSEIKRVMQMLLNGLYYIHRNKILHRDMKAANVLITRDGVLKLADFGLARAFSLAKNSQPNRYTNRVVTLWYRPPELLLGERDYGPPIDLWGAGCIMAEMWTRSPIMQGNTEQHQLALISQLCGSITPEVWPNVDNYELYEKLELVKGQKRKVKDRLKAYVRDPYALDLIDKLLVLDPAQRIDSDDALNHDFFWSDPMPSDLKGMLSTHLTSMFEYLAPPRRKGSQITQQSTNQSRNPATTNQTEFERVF
T11 sequence (O75909 whole entry partner, species assumed): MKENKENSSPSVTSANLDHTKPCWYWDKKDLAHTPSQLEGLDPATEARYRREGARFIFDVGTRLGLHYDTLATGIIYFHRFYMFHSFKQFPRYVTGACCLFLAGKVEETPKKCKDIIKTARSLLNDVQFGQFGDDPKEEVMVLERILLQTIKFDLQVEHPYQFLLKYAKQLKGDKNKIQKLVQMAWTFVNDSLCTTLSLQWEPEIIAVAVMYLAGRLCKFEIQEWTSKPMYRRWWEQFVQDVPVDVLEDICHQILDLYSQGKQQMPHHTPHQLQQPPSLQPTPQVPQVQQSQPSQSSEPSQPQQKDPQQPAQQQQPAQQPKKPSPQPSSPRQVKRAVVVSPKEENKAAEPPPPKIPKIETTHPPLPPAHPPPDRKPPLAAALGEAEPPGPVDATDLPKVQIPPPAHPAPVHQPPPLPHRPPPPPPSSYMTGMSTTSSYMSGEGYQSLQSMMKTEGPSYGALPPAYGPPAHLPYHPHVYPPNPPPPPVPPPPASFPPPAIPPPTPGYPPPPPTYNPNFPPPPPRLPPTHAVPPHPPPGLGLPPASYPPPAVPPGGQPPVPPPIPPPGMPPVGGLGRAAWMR
T1 sequence (P50750 whole entry, species assumed): as the sequence (P50750 whole entry, species assumed) above
T1 sequence (O60563 whole entry partner, species assumed): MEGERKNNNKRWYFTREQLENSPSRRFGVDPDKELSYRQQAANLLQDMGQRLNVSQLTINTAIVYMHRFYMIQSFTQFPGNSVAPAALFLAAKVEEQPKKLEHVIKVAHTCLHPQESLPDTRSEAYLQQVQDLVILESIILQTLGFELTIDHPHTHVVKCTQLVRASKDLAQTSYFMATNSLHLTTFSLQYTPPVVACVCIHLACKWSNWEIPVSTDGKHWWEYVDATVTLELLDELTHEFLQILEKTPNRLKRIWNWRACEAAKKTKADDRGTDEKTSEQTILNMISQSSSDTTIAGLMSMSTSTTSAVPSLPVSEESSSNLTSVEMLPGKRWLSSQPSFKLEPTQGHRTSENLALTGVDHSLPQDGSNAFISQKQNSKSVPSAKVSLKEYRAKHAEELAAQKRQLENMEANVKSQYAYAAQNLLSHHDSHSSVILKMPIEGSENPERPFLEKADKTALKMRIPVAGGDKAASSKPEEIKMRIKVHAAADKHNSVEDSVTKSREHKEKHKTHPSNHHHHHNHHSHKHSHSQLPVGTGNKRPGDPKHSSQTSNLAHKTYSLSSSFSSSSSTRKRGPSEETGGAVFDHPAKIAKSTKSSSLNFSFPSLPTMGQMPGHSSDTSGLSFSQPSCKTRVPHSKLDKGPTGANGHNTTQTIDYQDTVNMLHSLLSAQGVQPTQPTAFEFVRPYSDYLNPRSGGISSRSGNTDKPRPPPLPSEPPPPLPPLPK
T6 sequence (Q00534 whole entry, species assumed): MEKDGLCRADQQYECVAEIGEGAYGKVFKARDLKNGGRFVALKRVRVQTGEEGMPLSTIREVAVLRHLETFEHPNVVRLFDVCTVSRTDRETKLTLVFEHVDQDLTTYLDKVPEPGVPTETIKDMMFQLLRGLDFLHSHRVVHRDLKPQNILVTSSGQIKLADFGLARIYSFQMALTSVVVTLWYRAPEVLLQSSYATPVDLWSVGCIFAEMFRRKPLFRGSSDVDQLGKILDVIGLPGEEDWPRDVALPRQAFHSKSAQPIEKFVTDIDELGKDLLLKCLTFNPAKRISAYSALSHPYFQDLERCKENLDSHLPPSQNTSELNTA
T6 sequence (P24385 whole entry partner, species assumed): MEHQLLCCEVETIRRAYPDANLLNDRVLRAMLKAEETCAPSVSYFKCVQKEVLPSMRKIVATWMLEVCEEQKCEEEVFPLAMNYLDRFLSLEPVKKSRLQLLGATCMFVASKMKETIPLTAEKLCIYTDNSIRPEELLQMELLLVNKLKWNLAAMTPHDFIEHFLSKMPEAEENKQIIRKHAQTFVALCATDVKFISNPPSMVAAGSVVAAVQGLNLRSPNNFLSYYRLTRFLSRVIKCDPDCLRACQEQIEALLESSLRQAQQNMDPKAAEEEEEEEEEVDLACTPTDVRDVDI
T3 sequence (Q00526 whole entry, species assumed): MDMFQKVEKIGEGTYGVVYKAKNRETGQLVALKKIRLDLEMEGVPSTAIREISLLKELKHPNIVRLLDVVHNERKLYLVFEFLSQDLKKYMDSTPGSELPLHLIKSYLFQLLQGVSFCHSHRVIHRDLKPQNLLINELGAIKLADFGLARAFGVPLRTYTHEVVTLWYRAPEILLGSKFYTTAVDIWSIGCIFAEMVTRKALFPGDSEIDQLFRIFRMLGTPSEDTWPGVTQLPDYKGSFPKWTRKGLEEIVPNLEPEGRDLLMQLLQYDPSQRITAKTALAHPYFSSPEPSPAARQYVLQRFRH
T3 sequence (P24863 whole entry partner, species assumed): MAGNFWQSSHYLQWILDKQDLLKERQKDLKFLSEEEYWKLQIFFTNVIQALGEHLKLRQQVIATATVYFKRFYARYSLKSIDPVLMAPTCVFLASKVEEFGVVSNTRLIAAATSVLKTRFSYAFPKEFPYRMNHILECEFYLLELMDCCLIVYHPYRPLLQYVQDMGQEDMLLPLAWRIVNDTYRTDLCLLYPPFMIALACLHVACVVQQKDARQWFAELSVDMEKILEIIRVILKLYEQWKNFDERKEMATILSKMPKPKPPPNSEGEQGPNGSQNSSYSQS
T7 sequence (P50613 whole entry, species assumed): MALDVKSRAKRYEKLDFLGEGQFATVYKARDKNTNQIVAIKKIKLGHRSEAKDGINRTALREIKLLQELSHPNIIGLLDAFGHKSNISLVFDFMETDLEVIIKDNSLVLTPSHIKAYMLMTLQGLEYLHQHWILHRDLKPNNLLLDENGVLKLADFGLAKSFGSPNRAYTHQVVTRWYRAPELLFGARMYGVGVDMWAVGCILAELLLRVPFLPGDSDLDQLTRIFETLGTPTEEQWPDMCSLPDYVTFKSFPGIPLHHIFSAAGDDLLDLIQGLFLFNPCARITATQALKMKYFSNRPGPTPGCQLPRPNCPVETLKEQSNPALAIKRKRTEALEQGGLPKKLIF
T7 sequence (P51946 whole entry partner, species assumed): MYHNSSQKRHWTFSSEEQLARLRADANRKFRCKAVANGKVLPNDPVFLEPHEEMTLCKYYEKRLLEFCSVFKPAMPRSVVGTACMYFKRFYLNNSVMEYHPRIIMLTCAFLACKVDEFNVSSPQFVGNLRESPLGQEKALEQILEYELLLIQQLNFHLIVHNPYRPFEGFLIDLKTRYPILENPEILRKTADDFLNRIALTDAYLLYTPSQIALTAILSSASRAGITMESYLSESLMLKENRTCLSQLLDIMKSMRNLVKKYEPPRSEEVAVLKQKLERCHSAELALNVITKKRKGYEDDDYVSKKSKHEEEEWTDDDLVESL
T7 sequence (P51948 whole entry partner, species assumed): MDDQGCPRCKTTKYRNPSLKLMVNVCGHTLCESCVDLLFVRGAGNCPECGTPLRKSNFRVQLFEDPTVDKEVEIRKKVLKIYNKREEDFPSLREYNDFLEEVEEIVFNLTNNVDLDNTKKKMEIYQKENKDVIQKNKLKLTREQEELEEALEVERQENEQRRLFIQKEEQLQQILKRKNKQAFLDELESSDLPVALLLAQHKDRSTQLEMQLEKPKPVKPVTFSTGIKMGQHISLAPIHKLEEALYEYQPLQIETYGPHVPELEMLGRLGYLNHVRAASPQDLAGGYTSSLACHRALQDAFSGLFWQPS
T5 sequence (Q00535 whole entry, species assumed): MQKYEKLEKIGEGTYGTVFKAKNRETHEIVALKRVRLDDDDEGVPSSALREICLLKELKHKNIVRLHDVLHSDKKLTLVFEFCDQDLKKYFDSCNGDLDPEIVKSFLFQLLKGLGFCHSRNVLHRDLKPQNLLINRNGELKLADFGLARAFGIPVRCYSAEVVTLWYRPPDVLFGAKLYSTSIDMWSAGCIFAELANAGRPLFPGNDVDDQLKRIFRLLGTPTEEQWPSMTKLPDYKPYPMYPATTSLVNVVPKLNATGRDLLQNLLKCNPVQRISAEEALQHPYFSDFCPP
T5 sequence (Q15078 whole entry partner, species assumed): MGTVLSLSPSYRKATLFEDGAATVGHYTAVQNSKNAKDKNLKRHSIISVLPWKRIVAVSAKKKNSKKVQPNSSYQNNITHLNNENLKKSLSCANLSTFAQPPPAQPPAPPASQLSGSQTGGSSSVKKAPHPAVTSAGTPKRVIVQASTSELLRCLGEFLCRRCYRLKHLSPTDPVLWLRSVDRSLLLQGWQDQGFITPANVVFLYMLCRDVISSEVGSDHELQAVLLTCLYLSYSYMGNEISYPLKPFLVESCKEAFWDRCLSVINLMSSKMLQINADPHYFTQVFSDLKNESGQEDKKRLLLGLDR
T16 sequence (P11802 whole entry, species assumed): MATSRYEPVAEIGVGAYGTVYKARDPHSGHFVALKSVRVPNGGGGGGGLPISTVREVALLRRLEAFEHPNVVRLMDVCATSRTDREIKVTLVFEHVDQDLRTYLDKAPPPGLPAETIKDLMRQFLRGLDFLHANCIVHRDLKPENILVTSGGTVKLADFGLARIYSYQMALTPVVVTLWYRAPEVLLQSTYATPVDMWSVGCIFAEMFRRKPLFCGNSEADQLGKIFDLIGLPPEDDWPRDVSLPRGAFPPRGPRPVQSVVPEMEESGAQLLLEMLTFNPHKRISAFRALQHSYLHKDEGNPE
T16 sequence (P24385 whole entry partner, species assumed): as the sequence (P24385 whole entry partner, species assumed) above

C=CC(=O)Nc1cc(N(C(=O)NCc2ccccc2)[C@H]2CC[C@H](Nc3ccc(C#N)cn3)CC2)ccc1N1CCC(N(C)C)CC1 [YJZ5118, N-(5-(3-benzyl-1-((1r,4r)-4-((5-cyanopyridin-2-yl)amino)cyclohexyl)ureido)-2-(4-(dimethylamino)piperidin-1-yl)phenyl)acrylamide]
IC50 [1]: 4910 nM
IC50 [2]: > 10000 nM
IC50 [3]: > 10000 nM
IC50 [4]: > 10000 nM
IC50 [5]: > 10000 nM
IC50 [6]: 4480 nM
IC50 [7]: 2260 nM
IC50 [8]: > 10000 nM
IC50 [9]: > 10000 nM
sensitivity of normal and non-neoplastic cells [10]: much lower sensitive
IC50 [11]: > 10000 nM
AUC(0-t) [12, 27]: 1660 ng·h/mL
Cmax [12, 27]: 3310 ng/mL
Tmax [12, 27]: 0.08 h
clearance [12, 27]: 25.6 mL/min/kg
half-life [12, 27]: 1.21 h
bioavailability ([12]; ip, 2.5 mg/kg, i.p. 2.5 mg/kg, read-out: F): 113%
AUC(0-t) ([12]; ip, i.p. 2.5 mg/kg): 1860 ng·h/mL
Cmax ([12]; ip, i.p. 2.5 mg/kg): 1580 ng/mL
Tmax ([12]; ip, i.p. 2.5 mg/kg): 0.33 h
half-life ([12]; ip, i.p. 2.5 mg/kg): 1.46 h
clearance ([12]; iv, i.v. 2 mg/kg): 28.3 mL/min/kg
AUC(0-t) ([12]; iv, i.v. 2.5 mg/kg (Figure 3A)): 1580 ng·h/mL
Cmax ([12]; iv, i.v. 2.5 mg/kg (Figure 3A)): 2810 ng/mL
Tmax ([12]; iv, i.v. 2.5 mg/kg (Figure 3A)): 0.08 h
clearance ([12]; iv, i.v. 2.5 mg/kg (Figure 3A)): 28.3 mL/min/kg
half-life ([12]; iv, i.v. 2.5 mg/kg (Figure 3A)): 1.29 h
bioavailability ([12]; po, 10 mg/kg, p.o. 10 mg/kg, read-out: F (oral bioavailability)): 35.5%
AUC(0-t) ([12]; po, p.o. 10 mg/kg): 2240 ng·h/mL
Cmax ([12]; po, p.o. 10 mg/kg): 639 ng/mL
Tmax ([12]; po, p.o. 10 mg/kg): 1.5 h
half-life ([12]; po, p.o. 10 mg/kg): 2.32 h
clearance rate, times lower than that of 14h ([12]; i.v.): 4 time
F (oral bioavailability) ([12]; p.o. 10 mg/kg, 10 mg/kg): 35.5%
IC50 [13]: 7160 nM
apoptosis rate [14]: 28.5%
cell growth inhibitory effect after washout [15]: maintained potent antiproliferative activity
IC50 [16]: < 0.04 µM
IC50 [17]: < 0.04 µM
IC50 [18]: < 0.04 µM
IC50 [19]: < 0.04 µM
IC50 [20]: < 0.04 µM
IC50 [21]: < 0.04 µM
IC50 [22]: > 10000 nM
IC50 [23]: > 10000 nM
IC50 [24]: > 10 µM
IC50 [25]: > 10000 nM
IC50 [26]: 3390 nM
